In patent US20250360205A1, “NOD1 MODULATORS AND USES THEREOF” (Academia Sinica, priority 2022, published 2025):

Molecular target: T1, NOD1 (Homo sapiens, UniProt Q9Y239)
T1 construct: host or cells: HEK-Blue hNOD1 cells (HEK293-derived, with NF-κB-inducible SEAP reporter)
T1 sequence (Q9Y239 1-953): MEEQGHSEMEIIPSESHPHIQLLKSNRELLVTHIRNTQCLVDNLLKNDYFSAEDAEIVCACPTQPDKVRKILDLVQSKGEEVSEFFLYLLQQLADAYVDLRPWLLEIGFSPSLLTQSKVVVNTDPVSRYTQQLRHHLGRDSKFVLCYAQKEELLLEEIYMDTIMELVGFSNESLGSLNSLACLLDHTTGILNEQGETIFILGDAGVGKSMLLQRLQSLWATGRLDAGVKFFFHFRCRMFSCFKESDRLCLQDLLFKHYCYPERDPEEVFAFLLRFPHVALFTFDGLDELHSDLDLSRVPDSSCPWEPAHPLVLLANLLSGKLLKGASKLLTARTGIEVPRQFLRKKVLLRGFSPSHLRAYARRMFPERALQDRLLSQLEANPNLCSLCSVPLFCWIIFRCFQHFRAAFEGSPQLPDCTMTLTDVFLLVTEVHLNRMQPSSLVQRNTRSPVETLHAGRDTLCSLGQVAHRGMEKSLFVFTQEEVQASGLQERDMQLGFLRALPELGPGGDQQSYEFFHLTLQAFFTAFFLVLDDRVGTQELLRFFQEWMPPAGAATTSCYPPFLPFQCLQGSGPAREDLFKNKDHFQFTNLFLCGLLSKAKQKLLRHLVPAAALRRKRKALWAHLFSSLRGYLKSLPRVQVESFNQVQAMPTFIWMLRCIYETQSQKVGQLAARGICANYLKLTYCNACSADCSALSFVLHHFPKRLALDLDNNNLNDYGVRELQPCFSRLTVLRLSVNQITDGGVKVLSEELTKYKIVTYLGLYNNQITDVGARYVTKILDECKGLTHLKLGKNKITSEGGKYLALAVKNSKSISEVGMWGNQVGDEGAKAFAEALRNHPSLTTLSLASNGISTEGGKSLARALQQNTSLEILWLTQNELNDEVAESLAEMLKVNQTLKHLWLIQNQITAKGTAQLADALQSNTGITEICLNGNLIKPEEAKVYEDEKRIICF
Assay: NOD1-induced NF-κB activation assay (SEAP reporter) in HEK-Blue hNOD1 cells
Assay type: cell-based
Details: 16 h; for NOD1 stimulation potency (NF-κB activity): 0.1 μM, FIG. 1, relative to iE-DAP, C12-iE-DAP, Tri-DAP
Experimental: Measurement of NOD1-induced NF-κB Activation Assay
HEK-Blue™ hNOD1 Cells (Invivogen; San Diego, CA, U.S.) were cultured in accordance with the manufacturer's instructions. HEK-Blue™ hNOD1 Cells was assayed for NF-κB transcriptional activity changes upon incubation (3.6×10^5 cells/mL) with iE-DAP, C12-iE-DAP, Tri-DAP (Invivogen, San Diego, CA, U.S.) and other NOD1 agonistic compounds (0.1-10 μM) for 16 h. Secreted embryonic alkaline phosphatase (SEAP) activity was determined in the supernatant in accordance with the manufacturer's instructions. An amount of 20 μL of SEAP-inducer compound or negative control was added to 180 μL of cells in HEK-Blue™ detection medium and incubated at 37° C. for 16 h. Absorbance was measured on a SpectraMax M5 (Molecular Devices, Sunnyvale, CA, U.S.) at 640 nm.

NOD1 stimulation potency (NF-κB activity)	fold increase of NF-κB activity (1 μM, FIGS. 2 and 3) [fold]	SMILES
decreased dramatically	–	COc1ccc(CC(=O)NC(C)C(=O)NC(CCC(=O)NC(CO)CCCC(N)C(=O)O)C(=O)O)cc1 (stereo not drawn) [Compound 14f]
decreased dramatically	–	CC(NC(=O)Cc1ccc(-c2ccccc2)cc1)C(=O)NC(CCC(=O)NC(CO)CCCC(N)C(=O)O)C(=O)O (stereo not drawn) [Compound 14h]
–	20	C[C@H](N)C(=O)N[C@H](CCC(=O)N[C@H](CO)CCC[C@@H](N)C(=O)O)C(=O)O [Compound 6]
